Experimental findings from ChEMBL document CHEMBL5241112, “Insights into the recent progress in the medicinal chemistry of pyranopyrimidine analogs” (RSC Med Chem, 2022) are described below.

pIC50: −log10 of the molar value. Converted amounts (≈) assume the structure as drawn.

The IC50 is the concentration needed to halve the response being measured. As usually defined, the pIC50 is the negative decadic logarithm of the IC50, by convention in mol/L.

One assay relates to Bacillus subtilis. As to the kind of experiment: Antibacterial activity against Bacillus subtilis assessed as diameter of inhibition zone at 100 ug/ml by disc diffusion method. The format is functional. The settings on record: read-out: DIZ. (In general: In agar diffusion tests the substance spreads into inoculated agar from a disc or well.)
For assay [1], the system named is Klebsiella pneumoniae. Description: Antibacterial activity against Klebsiella pneumoniae assessed as diameter of inhibition zone at 100 ug/ml by disc diffusion method. Type of assay: functional. The conditions noted are these: read-out: DIZ.
In the next assay the test system is Escherichia coli. As to the kind of experiment: Antibacterial activity against Escherichia coli assessed as diameter of inhibition zone at 100 ug/ml by disc diffusion method. The format is functional. The conditions noted are these: read-out: DIZ.
The subject of the next assay is Candida albicans. As to the kind of experiment: Antifungal activity against Candida albicans assessed as diameter of inhibition zone at 100 ug/ml by agar disc diffusion method. Type of assay: functional. The conditions noted are these: read-out: DIZ.
In another assay the test system is Staphylococcus aureus. As to the kind of experiment: Antibacterial activity against Staphylococcus aureus assessed as diameter of inhibition zone at 100 ug/ml by disc diffusion method. The conditions noted are these: read-out: DIZ. The format is functional.
For the next assay, the system named is Aspergillus flavus. As to the kind of experiment: Antifungal activity against Aspergillus flavus assessed as diameter of inhibition zone at 100 ug/ml by agar disc diffusion method. Type of assay: functional. The settings on record: read-out: DIZ.
The nature of assay [2]: Antioxidant activity assessed as DPPH radical scavenging activity at 75 ug/ml incubated for 30 mins by spectrophotometric analysis. Type of assay: functional. The settings on record: dose 75.0 µg/ml.
Assay [3] can be described thus: Antioxidant activity assessed as DPPH radical scavenging activity at 12 ug incubated for 30 mins by spectrophotometric analysis. Type of assay: functional. The conditions noted are these: dose 12.0 µg.
Assay [4] is described as follows: Antioxidant activity assessed as DPPH radical scavenging activity at 100 ug/ml incubated for 30 mins by spectrophotometric analysis. The format is functional. The conditions noted are these: dose 100.0 µg/ml. On the technique in general: The DPPH test is a chemical assay of radical scavenging.
For a further assay, the system named is Salmonella typhimurium. Description: Antimicrobial activity against Salmonella typhimurium ATCC 19430 assessed as diameter of inhibition zone at 20 mg/ml incubated for 24 hrs by disk diffusion method. The format is functional, Salmonella enterica subsp. enterica serovar Typhimurium. The settings on record: Salmonella enterica, read-out: DIZ.
The subject of assay [5] is Klebsiella pneumoniae. Description: Antimicrobial activity against Klebsiella pneumoniae ATCC 15380 assessed as diameter of inhibition zone at 20 mg/ml incubated for 24 hrs by disk diffusion method. The settings on record: read-out: DIZ. Type of assay: functional.
The nature of assay [6]: Antioxidant activity assessed as H2O2 radical scavenging activity. Type of assay: functional.
Assay [7] is described as follows: Antioxidant activity assessed as NO radical scavenging activity. Type of assay: functional.
A short description of assay [8]: Antioxidant activity assessed as DPPH radical scavenging activity. The format is functional.
Another assay deals with MCF7. As to the kind of experiment: Anticancer activity against human MCF7 cells assessed as reduction in cell viability incubated for 24 hrs by MTT colorimetric assay. The format is functional, cell-based. The settings on record: MCF7, 24 h. (In general: Formazan colour is commonly taken as a measure of viable cells.)
The next assay relates to HepG2. Description: Anticancer activity against human HepG2 cells assessed as reduction in cell viability incubated for 24 hrs by MTT colorimetric assay. Type of assay: functional, cell-based. The conditions noted are these: HepG2, 24 h.
The test system of a further assay is HCT-116. Description: Anticancer activity against human HCT-116 cells assessed as reduction in cell viability incubated for 24 hrs by MTT colorimetric assay. The format is functional, cell-based. The settings on record: HCT-116, 24 h.
A further assay concerns Aspergillus ochraceus. Description: Antifungal activity against Aspergillus ochraceus assessed as diameter of inhibition zone by disc diffusion method. The format is functional.
Another assay relates to Penicillium chrysogenum. Description: Antifungal activity against Penicillium chrysogenum assessed as diameter of inhibition zone by disc diffusion method. The format is functional.
Another assay deals with Serratia marcescens. Description: Antibacterial activity against Serratia marcescens assessed as diameter of inhibition zone by disc diffusion method. Type of assay: functional.

With `CCOC(=O)C1=C(C)Oc2nc(C)n(Cc3cn(-c4ccc(Cl)cc4)nn3)c(=O)c2C1c1ccc([N+](=O)[O-])cc1` (stereo not drawn), the zone of inhibition at 100 µg/mL in the assay with Bacillus subtilis came out at 13 mm; with Klebsiella pneumoniae [1], 16.5 mm; in the assay on Escherichia coli, 17 mm; in the assay with Candida albicans it was 17.5 mm; in the assay with Staphylococcus aureus, 15 mm; in the assay on Aspergillus flavus it was 17.5 mm.
For `CC(=O)N1CCN(c2ccc(OCC3COC(Cn4ccnc4)(c4ccc(Cl)cc4Cl)O3)cc2)CC1` (stereo not drawn) [KETOCONAZOLE], the zone of inhibition at 100 µg/mL in the assay on Candida albicans came to 20.5 mm; in the assay on Aspergillus flavus, 18.5 mm.
For `O=C1O[C@H]([C@@H](O)CO)C(O)=C1O`, the results for the Activity in [2], in assay [3] and in assay [4] were 89.4%, 94.6% and 97.6%, respectively.
Take `N#CC1=C(N)Oc2[nH]c(=O)[nH]c(=O)c2C1c1ccc[nH]1` (stereo not drawn): the zone of inhibition at 20000 µg/mL with Salmonella typhimurium was determined as 20 mm; in the assay with Klebsiella pneumoniae [5], 16 mm.
With `Nc1ncnc2c1C(c1ccccc1O)c1ccc(O)cc1O2` (stereo not drawn), the IC50 in [6] was determined as 53.54 µg/mL (≈ 174 µM); in [7] it was 50.32 µg/mL (≈ 164 µM); in [8], 36.82 µg/mL (≈ 120 µM).
For `N#CC1=C(N)Oc2[nH]nc(-c3ccccc3)c2C1c1coc2ccccc2c1=O` (stereo not drawn), the concentration for half-maximal inhibition (IC50) is 69.8 µg/mL with MCF7, 57.3 µg/mL in the assay with HepG2 and 54.1 µg/mL in the assay on HCT-116.
As for `CCOC(=O)C1=C(C)Oc2nc(C)n(Cc3cn(-c4ccc([N+](=O)[O-])cc4)nn3)c(=O)c2C1c1ccc([N+](=O)[O-])cc1` (stereo not drawn), the zone of inhibition at 100 µg/mL with Bacillus subtilis was 12.5 mm; in the assay with Klebsiella pneumoniae [1] it was 14 mm; in the assay with Escherichia coli it was 14.5 mm; in the assay with Staphylococcus aureus, 14 mm.
For `Cc1nc2c3c(ncn2n1)Oc1ccc2cc(Br)ccc2c1C3`, the results for the “diameter of the inhibition zone (DIZ)” value in the assay with Aspergillus ochraceus, with Penicillium chrysogenum and in the assay with Serratia marcescens were 17 mm, 13 mm and 23 mm, respectively.
As for `CCOC(=O)C1=C(C)Oc2nc(C)n(Cc3cn(-c4cccc(C(F)(F)F)c4)nn3)c(=O)c2C1c1ccc([N+](=O)[O-])cc1` (stereo not drawn), the results for the zone of inhibition at 100 µg/mL in the assay with Bacillus subtilis, in the assay on Klebsiella pneumoniae [1] and in the assay on Escherichia coli were 12 mm, 15.5 mm and 14 mm, respectively.
On to `CCOC(=O)C1=C(C)Oc2nc(C)n(Cc3cn(-c4cccc([N+](=O)[O-])c4)nn3)c(=O)c2C1c1ccc([N+](=O)[O-])cc1` (stereo not drawn), for which the zone of inhibition at 100 µg/mL in the assay with Escherichia coli came to 15 mm; in the assay with Candida albicans, 16.5 mm; in the assay with Staphylococcus aureus, 16 mm.
As to `Nc1ncnc2c1C(c1ccc(Cl)cc1)c1ccc(O)cc1O2` (stereo not drawn), the IC50 turned out to be 53.54 µg/mL (≈ 164 µM) in [6], 50.32 µg/mL (≈ 154 µM) in assay [7] and 36.82 µg/mL (≈ 113 µM) in [8].
Take `N#CC(C#N)=C1c2c(-c3ccccc3)n[nH]c2Oc2[nH]c(=S)nc(-c3ccccc3O)c21`: the pIC50 in the assay with MCF7, in the assay with HepG2 and in the assay on HCT-116 was 4.65 each time.
Take `CCOC(=O)C1=C(C)Oc2nc(C)n(Cc3cn(-c4cccc(F)c4)nn3)c(=O)c2C1c1ccc([N+](=O)[O-])cc1` (stereo not drawn): the zone of inhibition at 100 µg/mL in the assay on Klebsiella pneumoniae [1] is 14.5 mm; with Escherichia coli, 15.5 mm; in the assay with Staphylococcus aureus, 14.5 mm; in the assay on Aspergillus flavus, 14.5 mm.
`O=c1c(C2c3c(O)ncnc3Oc3[nH]nc(-c4ccccc4)c32)coc2ccccc12` (stereo not drawn): the Activity in assay [4] was 87.5%.
